Source: patent US20130204033A1, “ANTIPROLIFERATIVE COMPOUNDS, CONJUGATES THEREOF, METHODS THEREFOR, AND USES THEREOF” (Medarex, Inc., priority 2009, published 2013)
Like-named read-outs stand apart in the source and are kept apart here.

What was measured:
Format in all cases: cell-based, human
OVCAR3 [1] = assay: 3H thymidine proliferation assay, OVCAR3; conditions: 3H thymidine method, 72 h incubation; read-out: EC50, OVCAR3
Description: (§1) This example generally describes the procedures used to assay the antiproliferative activity of compounds of this invention or their conjugates. Human tumor cell lines were obtained from the American Type Culture Collection (ATCC), P.O. Box 1549, Manassas, Va. 20108, USA, and cultured according to instruction from the ATCC. Cells were seeded at 1.0×10^3 or 1.0×10^4 cells/well in 96-well plates for 3 h for ATP assays or ^3H thymidine assays, respectively. 1:3 serial dilutions of free (unconjugated) compounds or their conjugates were added to the wells. Plates were allowed to incubate for 24 to 72 h. The ^3H thymidine plates were pulsed with 1.0 μCi of ^3H-thymidine per well for the last 24 hours of the total incubation period, harvested, and read on a Top Count Scintillation Counter (Packard Instruments, Meriden, Conn.). ATP levels in the ATP plates were measured using the […]-GLO® Luminescent Cell Viability kit following the manufacturer's manual and read on a GLOMAX® 20/20 luminometer (both from Promega, Madison, Wis., USA). The EC50 values—the concentration at which an agent inhibits or reduces cell proliferation by 50% —were determined using PRISM™ software, version 4.0 (GraphPad Software, La Jolla, Calif., USA).
(§2) Using the ^3H thymidine or the ATP luminescence assay, or both, the activities of compounds of this invention were assayed against the following cancer cell lines: HCT-15 (colorectal cancer, multi-drug resistant (MDR)); Hep3B (liver cancer); LNCaP (prostate cancer, androgen receptor positive (AR^+)); MDA-MB-231 (breast cancer, estrogen receptor, progesterone receptor, and Her2 negative (triple negative)); A2058 (melanoma); U-87 MG (glioblastoma); NCI-H460 (NSCLC); A549 (NSCLC); HPAC (pancreatic cancer, primary); PC3 (prostate cancer, AR); BT474 (breast cancer, Her2 highly positive (Her2hi)); SKOV3 (ovarian cancer, Her2hi); 786-O (renal cancer); UO-31 (renal cancer, MDR); NCI-H740 (SCLC); DMS53 (SCLC); SK-BR3 (breast cancer, Her2hi); ZR-75 (breast cancer, estrogen receptor positive); OVCAR3 (ovarian cancer); HL-60 (APL); OVCAR8/Adr (ovarian cancer, MDR); CEM-Cl (ALL); Nomo-1 (AML); RPMI-8226 (MM)); Raji (lymphoma); SW-480 (colorectal cancer, metastatic); SW-620 (colorectal cancer); and H226 (lung cancer). (Not all compounds were assayed against all cell lines.)
(§3) Table 2 provides the data for proliferation assays using the ^3H thymidine method, with an incubation period of 72 h.

Raji = assay: ATP luminescence proliferation assay, Raji; conditions: ATP luminescence, 72 h incubation, read-out: EC50 Raji (72 h)
Description: as §1, §2
(§4) Table 3 provides the data for the ATP luminescence proliferation assays, with an incubation period of 48, 72, or 96 h, as noted.

HPAC [2] = assay: ATP luminescence proliferation assay, HPAC; conditions: ATP luminescence, 72 h incubation, read-out: EC50 HPAC (72 h)
Description: as §1, §2, §4

Nomo-1 = assay: ATP luminescence proliferation assay, Nomo-1; conditions: ATP luminescence, Nomo-1, 72 h incubation; read-out: EC50 Nomo-1 (72 h)
Description: as §1, §2, §4

NCI-H460 = assay: ATP luminescence proliferation assay, NCI-H460; conditions: ATP luminescence
Description: as §1, §2, §4

HCT-15 [3] = assay: 3H thymidine proliferation assay, HCT-15; conditions: 3H thymidine method, 72 h incubation; read-out: EC50, HCT-15
Description: as §1, §2, §3

RPMI-8226 = assay: 3H thymidine proliferation assay, RPMI-8226; conditions: 3H thymidine method, 72 h incubation; read-out: EC50, RPMI-8226
Description: as §1, §2, §3

SKOV3 = assay: 3H thymidine proliferation assay, SKOV3; conditions: 3H thymidine method, 72 h incubation; read-out: EC50, SKOV3
Description: as §1, §2, §3

OVCAR8 = assay: 3H thymidine proliferation assay, OVCAR8; conditions: 3H thymidine method, 72 h incubation; read-out: EC50, OVCAR8
Description: as §1, §2, §3

786-O [4] = assay: ATP luminescence proliferation assay, 786-O; conditions: ATP luminescence, 786-O
Description: as §1, §2
FIGS. 12a and 12b show illustrative plots for ATP luminescence proliferation assays for a second set of compounds of this invention, against HL-60 and 786-O cells, respectively, with an incubation period of 72 h. FIGS. 12c and 12d show the plots for ^3H thymidine proliferation assays for the same set of compounds, again against HL-60 and 786-O cells, respectively, with a 72 h incubation period. In each instance, doxorubicin was used as a comparative compound.
as §4

786-O [5] = assay: 3H thymidine proliferation assay, 786-O; conditions: 3H thymidine method, 72 h incubation; read-out: EC50, 786-O
Description: as §1, §2, §3

OVCAR3 [6] = assay: ATP luminescence proliferation assay, OVCAR3; conditions: ATP luminescence, OVCAR3, 48 h incubation; read-out: EC50 OVCAR3 (48 h)
Description: as §1, §2, §4

BT474 = assay: 3H thymidine proliferation assay, BT474; conditions: 3H thymidine method, 72 h incubation; read-out: EC50, BT474
Description: as §1, §2, §3

Hep3B = assay: ATP luminescence proliferation assay, Hep3B; conditions: ATP luminescence, 48 h incubation, read-out: EC50 Hep3B (48 h)
Description: as §1, §2, §4

HCT-15 [7] = assay: ATP luminescence proliferation assay, HCT-15; conditions: ATP luminescence
Description: as §1, §2, §4

SW-620 = assay: ATP luminescence proliferation assay, SW-620; conditions: ATP luminescence, SW-620, 96 h incubation; read-out: EC50 SW-620 (96 h)
Description: as §1, §2, §4

HPAC [8] = assay: 3H thymidine proliferation assay, HPAC; conditions: 3H thymidine method, 72 h incubation; read-out: EC50, HPAC
Description: as §1, §2, §3

MDA-MB-231 = assay: 3H thymidine proliferation assay, MDA-MB-231; conditions: 3H thymidine method, 72 h incubation; read-out: EC50, MDA-MB-231
Description: as §1, §2, §3

[9] = NCI-H460, 72 h incubation, read-out: EC50 NCI-H460 (72 h)
[10] = 72 h incubation, read-out: EC50 786-O (72 h)
[11] = HCT-15, 72 h incubation, read-out: EC50 HCT-15 (72 h)

SMILES | EC50 (OVCAR3 [1]) | EC50 (Raji) | EC50 (Nomo-1) | EC50 (NCI-H460; [9]) | EC50 (HCT-15 [3]) | EC50 (RPMI-8226) | EC50 (SKOV3) | EC50 (OVCAR8) | EC50 (786-O [4]; [10]) | EC50 (786-O [5]) | EC50 (OVCAR3 [6]) | EC50 (BT474) | EC50 (Hep3B) | EC50 (HCT-15 [7]; [11]) | EC50 (SW-620) | EC50 (HPAC [8]) | EC50 (MDA-MB-231) | also measured
CCC[C@H](NC(=O)[C@H](Cc1ccccc1)NC(=O)c1csc([C@@H](C[C@H](C(C)C)N(C)C(=O)[C@@H](NC(=O)[C@H]2CCCCN2C)[C@@H](C)CC)OC)n1)C(=O)OC [Compound 19] | 53 nM | 9.2 nM | 5.2 nM | 43 nM | 1070 nM | 23 nM | > 100 nM | 69 nM | 40 nM | > 100 nM | 25 nM | > 100 nM | 18 nM | 245 nM | 14 nM | > 100 nM |  | EC50 (HPAC [2]): 0.33 nM
CC[C@H](C)[C@H](NC(=O)[C@H]1CCCCN1C)C(=O)N(C)[C@H](C[C@@H](OC(C)=O)c1nc(C(=O)N[C@@H](Cc2ccc(N)cc2)C(=O)O)cs1)C(C)C [Compound 56] | > 100 nM | 24 nM | > 100 nM |  | 2480 nM | > 100 nM | > 100 nM | > 3000 nM | > 100 nM | 29 nM | > 100 nM | > 100 nM | > 100 nM |  | 28 nM | > 100 nM | > 100 nM | EC50 (NCI-H460; NCI-H460, 48 h incubation, read-out: EC50 NCI-H460 (48 h)): > 100 nM; EC50 (HCT-15 [7]; HCT-15, 48 h incubation, read-out: EC50 HCT-15 (48 h)): > 3000 nM
CC[C@H](C)[C@H](NC(=O)[C@H]1CCCCN1C)C(=O)N(COC(=O)CC(C)C)[C@H](C[C@@H](OC(C)=O)c1nc(C(=O)N[C@@H](Cc2ccccc2)C[C@H](C)C(=O)O)cs1)C(C)C [Tub D, tubulysin D, reference compound] | 0.051 nM | 0.0048 nM | 0.013 nM | 0.0076 nM | 0.062 nM | 0.037 nM | 0.039 nM | 0.17 nM |  | 0.15 nM | 0.085 nM | 0.51 nM | 0.0012 nM | 0.014 nM | 0.0058 nM | 0.015 nM | 0.091 nM | EC50 (786-O [4]; 48 h incubation, read-out: EC50 786-O (48 h)): 0.022 nM
